Entries after “also recorded” stand apart in the source; their conditions may differ. Like-named read-outs stand apart in the source and are kept apart here.
Legend:
[1] = system: mouse intestinal loops challenged with cholera toxin; type: in vivo
Xenopus laevis epidermis = type: cell-based
CHO cells = type: cell-based, Chinese hamster
[2] = system: mouse intestinal loops challenged with cholera toxin; type: in vivo; conditions: 6 hour
[3] = 168 h, pH 5.5
physchem = conditions: pH 5.5
Adenylate Cyclase = Adenylate Cyclase (Bordetella pertussis, UniProt P0DKX7); assay: biochemical; type: biochemical
Adenylate Cyclase, sequence (P0DKX7 whole entry, looked up): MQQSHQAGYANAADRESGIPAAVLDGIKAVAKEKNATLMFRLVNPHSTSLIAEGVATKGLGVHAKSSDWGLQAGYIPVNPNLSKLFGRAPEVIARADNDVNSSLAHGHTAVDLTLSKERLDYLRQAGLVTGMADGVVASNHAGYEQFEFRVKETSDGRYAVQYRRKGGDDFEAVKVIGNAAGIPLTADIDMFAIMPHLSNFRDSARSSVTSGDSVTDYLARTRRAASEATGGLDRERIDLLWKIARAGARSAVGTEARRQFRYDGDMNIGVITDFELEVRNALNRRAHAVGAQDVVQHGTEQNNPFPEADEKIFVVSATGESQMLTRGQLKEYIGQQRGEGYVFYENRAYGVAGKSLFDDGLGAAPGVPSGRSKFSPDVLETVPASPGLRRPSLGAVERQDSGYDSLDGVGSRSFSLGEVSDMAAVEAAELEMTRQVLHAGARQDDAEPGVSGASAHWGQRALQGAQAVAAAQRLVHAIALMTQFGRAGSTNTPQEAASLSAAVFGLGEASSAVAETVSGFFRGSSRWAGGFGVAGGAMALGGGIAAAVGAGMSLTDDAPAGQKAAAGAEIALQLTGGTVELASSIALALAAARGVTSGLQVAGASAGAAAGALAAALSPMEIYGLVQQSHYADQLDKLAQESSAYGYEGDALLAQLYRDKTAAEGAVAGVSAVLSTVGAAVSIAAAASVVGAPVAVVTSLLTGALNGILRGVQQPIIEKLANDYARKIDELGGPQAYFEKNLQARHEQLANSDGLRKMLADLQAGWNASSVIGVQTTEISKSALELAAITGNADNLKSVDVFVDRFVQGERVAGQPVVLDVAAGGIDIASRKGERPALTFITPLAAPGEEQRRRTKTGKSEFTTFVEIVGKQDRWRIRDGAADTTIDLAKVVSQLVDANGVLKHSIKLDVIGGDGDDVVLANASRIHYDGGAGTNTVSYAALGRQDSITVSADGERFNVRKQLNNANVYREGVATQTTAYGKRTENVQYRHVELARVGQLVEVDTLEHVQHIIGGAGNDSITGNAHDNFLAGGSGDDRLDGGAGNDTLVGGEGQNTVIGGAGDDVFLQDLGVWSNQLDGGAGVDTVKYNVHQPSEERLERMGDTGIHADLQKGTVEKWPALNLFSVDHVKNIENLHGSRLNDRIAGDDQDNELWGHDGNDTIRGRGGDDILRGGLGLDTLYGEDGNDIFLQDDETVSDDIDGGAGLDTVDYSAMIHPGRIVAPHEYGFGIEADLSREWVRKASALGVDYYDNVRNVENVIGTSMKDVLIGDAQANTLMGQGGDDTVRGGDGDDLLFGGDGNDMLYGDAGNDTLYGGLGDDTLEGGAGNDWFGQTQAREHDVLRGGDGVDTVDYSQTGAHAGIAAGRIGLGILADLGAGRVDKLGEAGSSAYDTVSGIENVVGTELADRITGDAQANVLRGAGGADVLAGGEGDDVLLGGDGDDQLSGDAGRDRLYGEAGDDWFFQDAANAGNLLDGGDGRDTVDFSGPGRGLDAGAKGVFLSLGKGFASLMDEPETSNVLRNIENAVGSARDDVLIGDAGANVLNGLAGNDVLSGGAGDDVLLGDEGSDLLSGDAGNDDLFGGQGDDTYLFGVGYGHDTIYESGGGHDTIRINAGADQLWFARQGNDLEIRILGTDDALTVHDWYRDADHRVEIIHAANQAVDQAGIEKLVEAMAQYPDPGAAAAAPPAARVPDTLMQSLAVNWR

[4] = enzyme 4.6 nmoles, imidazole 2.7 mmoles, PGE2-Histidine adduct 52 μmoles, celecoxib 0.52 mmoles

For N[C@@H](Cc1c[nH]cn1)C(=O)O [L-histidine], the “fluid accumulation in mouse intestinal loops challenged with cholera toxin” value ([1]; 6 hours) was “as the dose of L-histidine was increased, the amount of fluid accumulation decreased; also recorded: accumulated significantly less fluid”, the “reduction of fluid accumulation, statistical significance” value ([1]; 6 hours) was “statistical significance (P<0.05)” and the “Difference in ISC between PGE2 and PGE2+L-histidine” value (Xenopus laevis epidermis) was 78±21%. The “ISC, % of control” value (Xenopus laevis epidermis) was 30±9 % of control, the “basal and PGE2-induced sodium transport” value (Xenopus laevis epidermis) was “reduced both basal and PGE2-induced sodium transport” and the “PGE2- and CT-stimulated cAMP formation in CHO cells” value (CHO cells) was “reduced the capacity of both PGE2 and CT to stimulate cAMP formation”.
With CC(=O)N[C@@H](CS)C(=O)O [NAC, N-acetyl-L-cysteine, reference compound] the intestinal fluid accumulation ([1]; mouse, in vivo) was “blocked all intestinal fluid accumulation” and the “protection against CT-induced fluid secretion in small intestinal loops” value ([1]; mouse, in vivo, ip, pH 7) was “no protective effect”.
In the case of CCCCC[C@H](O)/C=C/[C@H]1C=CC(=O)[C@@H]1C/C=C\CCCC(=O)O [PGA2, reference compound], the “CT-induced fluid accumulation in murine intestinal loops” value ([1]; mouse, in vivo) is reported as “reduce CT-induced fluid accumulation in murine intestinal loops with lower potency”.
For CCCCC[C@H](O)/C=C/C1=C(C/C=C\CCCC(=O)O)C(=O)CC1 [PGB2, reference compound], the “CT-induced fluid accumulation in murine intestinal loops” value ([1]; mouse, in vivo) was “reduce CT-induced fluid accumulation in murine intestinal loops with lower potency”.
With CCCCCC(O)/C=C/[C@H]1C(O)CC(=O)[C@H]1C/C=C\CCCC(=O)O (some centres unmarked) [PGE2, reference compound] the “increase of steady-state Na+-dependent short circuit current (ISC)” value (Xenopus laevis epidermis) was 14% and the “maximum PGE2-induced change in ISC” value (Xenopus laevis epidermis; n=5) was 18±3%.
For CCCCCC(O)/C=C/[C@H]1C(n2ccnc2)CC(=O)[C@H]1C/C=C\CCCC(=O)O (some centres unmarked) [PGE2-imidazole, 11-deoxy-11-imidazolyl-PGE2], the CT-induced fluid accumulation ([1]; 6 hour) was “significantly reduced”, the “fluid loss following CT challenge” value ([1]; mouse, in vivo) was “completely blocked” and the “inhibition of the CT fluid response” value ([1]; mouse, in vivo) was “virtually complete inhibition”. The “inhibition of CT-induced cAMP formation” value (CHO cells) was “significant inhibition; also recorded: reduces cAMP levels”, the “reduction of cAMP levels” value (CHO cells; 0.5 μg/ml) was “approximately 50%” and the “cAMP levels in the intestinal loop fluids” value [2] was “markedly reduced”. For the same compound, the adduct remaining [3] was 10% and the half-life (physchem) was about 60 h.
In the case of COc1ccc(-n2nc(C(F)(F)F)cc2-c2ccc(Cl)cc2)cc1 [SC560, reference compound], the “cholera toxin-induced fluid secretion” value ([1]; mouse, in vivo, sc) is reported as “inhibits cholera toxin-induced fluid secretion”.
In the case of Cc1ccc(-c2cc(C(F)(F)F)nn2-c2ccc(S(N)(=O)=O)cc2)cc1 [celecoxib, reference compound], the “CT-induced fluid accumulation in murine intestinal loops” value ([1]; 6 hours) is reported as “significantly reduced”, the IC50 (Adenylate Cyclase) is reported as 20 µM and the “inhibition of adenylate cyclase enzyme activity (FIG. 12)” value (“inhibition … (FIG. 12)” for short) (Adenylate Cyclase; [4]) is reported as “inhibit adenylate cyclase enzyme activity”.
With c1c[nH]cn1 [imidazole] the IC50 (Adenylate Cyclase) was 1570 µM, the “inhibition … (FIG. 12)” value (Adenylate Cyclase; [4]) was “inhibit adenylate cyclase enzyme activity” and the “Ratio Enzyme:Drug, molar concentration required to inhibit Adenylate Cyclase” value (Adenylate Cyclase; enzyme 0.46 nm) was 0.46 nm:1.57 mm.
With CS(=O)(=O)c1ccc(C2=C(c3ccccc3)C(=O)OC2)cc1 [rofecoxib, reference compound] the cholera toxin-induced secretion ([1]; mouse, in vivo) was “does not inhibit cholera toxin-induced secretion” and the “inhibition … (FIG. 12)” value (Adenylate Cyclase; [4]) was “absence of adenylate cyclase inhibition”.
With “prostaglandin E2-histidine [PGE2-histidine]” the “inhibition of the CT fluid response” value ([1]; mouse, in vivo) was “virtually complete inhibition”, the “inhibition … (FIG. 12)” value (Adenylate Cyclase) was “inhibit adenylate cyclase enzyme activity” and the IC50 (Adenylate Cyclase; read-out: IC50 dose inhibiting 50% of the enzyme activity) was 21.5 µM.
